From ChEMBL document CHEMBL3217712, “Improved biodistribution, pharmacokinetics and photodynamic efficacy using a new photostable sulfonamide bacteriochlorin” (Medchemcomm, 2012)
Activity calls are given as the source filed them. The rule behind the calls is not given here.

Experiments:
[1] = Biodistribution in mouse Cloudman S91 tumor bearing DBA2 mouse tumour at 10 mg/kg, ip after 12 hrs; assay type: ADME, organism-based, Neoplasm; design: dose 10 mg/kg, route intraperitoneal; settings: read-out: Drug uptake
[2] = Biodistribution in mouse Cloudman S91 tumor bearing DBA2 mouse skin at 10 mg/kg, ip after 2 hrs; assay type: ADME, organism-based, Zone of skin; design: dose 10 mg/kg, route intraperitoneal; settings: read-out: Drug uptake
[3] = Biodistribution in mouse Cloudman S91 tumor bearing DBA2 mouse kidneys at 10 mg/kg, ip after 24 hrs; assay type: ADME, organism-based; design: dose 10 mg/kg, route intraperitoneal; settings: kidney, read-out: Drug uptake
[4] = Biodistribution in mouse Cloudman S91 tumor bearing DBA2 mouse heart at 10 mg/kg, ip after 72 hrs; assay type: ADME, organism-based; design: dose 10 mg/kg, route intraperitoneal; settings: read-out: Drug uptake
[5] = Biodistribution in mouse Cloudman S91 tumor bearing DBA2 mouse intestine at 10 mg/kg, ip after 6 hrs; assay type: ADME, organism-based; design: dose 10 mg/kg, route intraperitoneal; settings: read-out: Drug uptake
[6] = Biodistribution in mouse Cloudman S91 tumor bearing DBA2 mouse intestine at 10 mg/kg, ip after 48 hrs; assay type: ADME, organism-based; design: dose 10 mg/kg, route intraperitoneal; settings: read-out: Drug uptake
[7] = test system: Nucleic Acid; test: Ratio of drug level in tumor to skin in ip dosed human HT29 tumor bearing mouse; assay type: ADME, organism-based; settings: in vivo
[8] = Biodistribution in mouse Cloudman S91 tumor bearing DBA2 mouse muscle at 10 mg/kg, ip after 2 hrs; assay type: ADME, organism-based, Muscle tissue; design: dose 10 mg/kg, route intraperitoneal; settings: read-out: Drug uptake
[9] = Biodistribution in mouse Cloudman S91 tumor bearing DBA2 mouse tumour at 10 mg/kg, ip after 6 hrs; assay type: ADME, organism-based, Neoplasm; design: dose 10 mg/kg, route intraperitoneal; settings: read-out: Drug uptake
[10] = Biodistribution in mouse Cloudman S91 tumor bearing DBA2 mouse liver at 10 mg/kg, ip after 2 hrs; assay type: ADME, organism-based; design: dose 10 mg/kg, route intraperitoneal; settings: read-out: Drug uptake
[11] = Biodistribution in mouse Cloudman S91 tumor bearing DBA2 mouse heart at 10 mg/kg, ip after 12 hrs; assay type: ADME, organism-based; design: dose 10 mg/kg, route intraperitoneal; settings: read-out: Drug uptake
[12] = Biodistribution in mouse Cloudman S91 tumor bearing DBA2 mouse intestine at 10 mg/kg, ip after 2 hrs; assay type: ADME, organism-based; design: dose 10 mg/kg, route intraperitoneal; settings: read-out: Drug uptake
[13] = Biodistribution in mouse Cloudman S91 tumor bearing DBA2 mouse spleen at 10 mg/kg, ip after 6 hrs; assay type: ADME, organism-based; design: dose 10 mg/kg, route intraperitoneal; settings: read-out: Drug uptake
[14] = test system: Nucleic Acid; test: Ratio of drug level in tumor to muscle in ip dosed human HT29 tumor bearing mouse; assay type: ADME, organism-based; settings: in vivo
[15] = Biodistribution in mouse Cloudman S91 tumor bearing DBA2 mouse tumour at 10 mg/kg, ip after 2 hrs; assay type: ADME, organism-based, Neoplasm; design: dose 10 mg/kg, route intraperitoneal; settings: read-out: Drug uptake
[16] = Biodistribution in mouse Cloudman S91 tumor bearing DBA2 mouse skin at 10 mg/kg, ip after 48 hrs; assay type: ADME, organism-based, Zone of skin; design: dose 10 mg/kg, route intraperitoneal; settings: read-out: Drug uptake
[17] = Biodistribution in mouse Cloudman S91 tumor bearing DBA2 mouse lungs at 10 mg/kg, ip after 24 hrs; assay type: ADME, organism-based; design: dose 10 mg/kg, route intraperitoneal; settings: lung, read-out: Drug uptake
[18] = test system: Mus musculus; test: Toxicity in mouse Cloudman S91 cells allografted DBA2 mouse assessed as skin damage with oedema and large scab formation at 10 mg/kg, ip followed by irradiated with 96 J cm'-2 laser light for 20 mins measured after 24 hrs; assay type: organism-based; design: dose 10 mg/kg, route intraperitoneal; settings: in vivo
[19] = Biodistribution in mouse Cloudman S91 tumor bearing DBA2 mouse tumour at 10 mg/kg, ip after 72 hrs; assay type: ADME, organism-based, Neoplasm; design: dose 10 mg/kg, route intraperitoneal; settings: read-out: Drug uptake
[20] = Biodistribution in mouse Cloudman S91 tumor bearing DBA2 mouse heart at 10 mg/kg, ip after 48 hrs; assay type: ADME, organism-based; design: dose 10 mg/kg, route intraperitoneal; settings: read-out: Drug uptake
[21] = Biodistribution in mouse Cloudman S91 tumor bearing DBA2 mouse blood at 10 mg/kg, ip after 24 hrs; assay type: ADME, organism-based; design: dose 10 mg/kg, route intraperitoneal; settings: read-out: Drug uptake
[22] = test system: S91; test: Photodynamic efficacy against mouse Cloudman S91 cells allografted in DBA2 mouse assessed as disappearance of tumor at 10 mg/kg, ip followed by irradiated with 96 J cm'-2 laser light for 20 mins measured after 80 days; assay type: functional, organism-based; design: dose 10 mg/kg
[23] = test system: S91; test: Photodynamic efficacy against mouse Cloudman S91 cells allografted in DBA2 mouse assessed as time of tumor growth delay at 10 mg/kg, ip followed by irradiated with 96 J cm'-2 laser light for 20 mins; assay type: functional; settings: route intraperitoneal
[24] = Biodistribution in mouse Cloudman S91 tumor bearing DBA2 mouse kidneys at 10 mg/kg, ip after 12 hrs; assay type: ADME, organism-based; design: dose 10 mg/kg, route intraperitoneal; settings: kidney, read-out: Drug uptake
[25] = Biodistribution in mouse Cloudman S91 tumor bearing DBA2 mouse spleen at 10 mg/kg, ip after 12 hrs; assay type: ADME, organism-based; design: dose 10 mg/kg, route intraperitoneal; settings: read-out: Drug uptake
[26] = test system: S91; test: Photodynamic efficacy against mouse Cloudman S91 cells allografted in DBA2 mouse assessed as tumor growth delay at 10 mg/kg, ip followed by irradiated with 96 J cm'-2 laser light for 20 mins relative to sulfonated bacteriochlorin; assay type: functional; settings: route intraperitoneal
[27] = Biodistribution in mouse Cloudman S91 tumor bearing DBA2 mouse lungs at 10 mg/kg, ip after 2 hrs; assay type: ADME, organism-based; design: dose 10 mg/kg, route intraperitoneal; settings: lung, read-out: Drug uptake
[28] = Biodistribution in mouse Cloudman S91 tumor bearing DBA2 mouse kidneys at 10 mg/kg, ip after 48 hrs; assay type: ADME, organism-based; design: dose 10 mg/kg, route intraperitoneal; settings: kidney, read-out: Drug uptake
[29] = Biodistribution in mouse Cloudman S91 tumor bearing DBA2 mouse muscle at 10 mg/kg, ip after 6 hrs; assay type: ADME, organism-based, Muscle tissue; design: dose 10 mg/kg, route intraperitoneal; settings: read-out: Drug uptake
[30] = test system: S91; test: Photodynamic efficacy against mouse Cloudman S91 cells allografted in DBA2 mouse assessed as necrotic and flat tumor at 10 mg/kg, ip followed by irradiated with 96 J cm'-2 laser light for 20 mins measured after 1 to 2 days; assay type: functional, organism-based; design: dose 10 mg/kg
[31] = Biodistribution in mouse Cloudman S91 tumor bearing DBA2 mouse spleen at 10 mg/kg, ip after 72 hrs; assay type: ADME, organism-based; design: dose 10 mg/kg, route intraperitoneal; settings: read-out: Drug uptake
[32] = Biodistribution in mouse Cloudman S91 tumor bearing DBA2 mouse liver at 10 mg/kg, ip after 48 hrs; assay type: ADME, organism-based; design: dose 10 mg/kg, route intraperitoneal; settings: read-out: Drug uptake
[33] = test system: S91; test: Photodynamic efficacy against mouse Cloudman S91 cells allografted in DBA2 mouse assessed as hyperaemia, oedema and progressive darkening of tumor at 10 mg/kg, ip followed by irradiated with 96 J cm'-2 laser light for 20 mins; assay type: functional, organism-based; design: dose 10 mg/kg
[34] = Biodistribution in mouse Cloudman S91 tumor bearing DBA2 mouse liver at 10 mg/kg, ip after 12 hrs; assay type: ADME, organism-based; design: dose 10 mg/kg, route intraperitoneal; settings: read-out: Drug uptake
[35] = Biodistribution in mouse Cloudman S91 tumor bearing DBA2 mouse lungs at 10 mg/kg, ip after 72 hrs; assay type: ADME, organism-based; design: dose 10 mg/kg, route intraperitoneal; settings: lung, read-out: Drug uptake
[36] = Biodistribution in mouse Cloudman S91 tumor bearing DBA2 mouse heart at 10 mg/kg, ip after 24 hrs; assay type: ADME, organism-based; design: dose 10 mg/kg, route intraperitoneal; settings: read-out: Drug uptake
[37] = test system: S91; test: Photodynamic efficacy against mouse Cloudman S91 cells allografted in DBA2 mouse assessed as necrotic scab formation in tumor at 10 mg/kg, ip followed by irradiated with 96 J cm'-2 laser light for 20 mins measured after 12 hrs; assay type: functional, organism-based; design: dose 10 mg/kg

CCNS(=O)(=O)c1ccc(Cl)c(-c2c3nc(c(-c4c(Cl)ccc(S(=O)(=O)NCC)c4Cl)c4ccc([nH]4)c(-c4c(Cl)ccc(S(=O)(=O)NCC)c4Cl)c4nc(c(-c5c(Cl)ccc(S(=O)(=O)NCC)c5Cl)c5ccc2[nH]5)CC4)CC3)c1Cl
concentration at 12 h [1]: 370 ng/g
concentration at 2 h [2]: 50 ng/g
concentration at 24 h [3]: 500 ng/g
concentration at 72 h [4]: 200 ng/g
concentration at 6 h [5]: 1800 ng/g
concentration at 48 h [6]: 900 ng/g
Ratio [7]: 1
concentration at 2 h [8]: 30 ng/g
concentration at 6 h [9]: 160 ng/g
concentration at 2 h [10]: 980 ng/g
concentration at 12 h [11]: 200 ng/g
concentration at 2 h [12]: 200 ng/g
concentration at 6 h [13]: 7000 ng/g
Ratio [14]: 5
concentration at 2 h [15]: 40 ng/g
concentration at 48 h [16]: 80 ng/g
concentration at 24 h [17]: 850 ng/g
Activity [18]: Toxic
concentration at 72 h [19]: 150 ng/g
concentration at 48 h [20]: 300 ng/g
concentration at 24 h [21]: 230 ng/g
Activity [22]: inactive
Time [23]: 44 days
concentration at 12 h [24]: 300 ng/g
concentration at 12 h [25]: 6100 ng/g
fold change (FC) [26]: 1.6
concentration at 2 h [27]: 200 ng/g
concentration at 48 h [28]: 400 ng/g
concentration at 6 h [29]: 50 ng/g
Activity [30]: Active
concentration at 72 h [31]: 3000 ng/g
concentration at 48 h [32]: 2400 ng/g
Activity [33]: Active
concentration at 12 h [34]: 4000 ng/g
concentration at 72 h [35]: 300 ng/g
concentration at 24 h [36]: 800 ng/g
Activity [37]: Active
